Patent publication US20070020193A1, “Dronabinol compositions and methods for using same” (priority 2005, published 2007)
Several values for one entry are separate records, joined by “and”; a condition that tells them apart may be missing. Identical values can stand only once. Entries after “also recorded” stand apart in the source; their conditions may differ.

Tests used:
healthy subjects [1] = experiment: Example 2: 12-lead ECG and telemetric cardiac monitoring; format: in vivo, human; details: for heart rate, mean value (ECG) / heart rate, mean increase above baseline / heart rate, mean increase above pre-dose value on Day 1: Day 1, 20 minutes after dosing; for time for heart rate to return to baseline after dosing: Day 1
Procedure: (§1) Adverse events were recorded based on original descriptions from subject responses to queries. Complete medical histories and physical examinations were conducted. Vital signs were monitored, ECGs were recorded along with pulmonary function tests and laboratory examinations.
(§2) Listings of values for each subject were presented with abnormal or out of range values for vital signs, laboratory assays, ECGs, pulmonary function tests, and physical examinations. Descriptive statistics (n, mean, standard deviation (SD), minimum, median, maximum) for all clinical laboratory safety parameters, ECGs, pulmonary function tests, and vital signs were provided. ECGs and physical examinations were to be summarized in shift tables to show changes from baseline between normal and abnormal findings.

[2] = Example 1 single rising dose inhaled delta-9-THC study: plasma pharmacokinetics
Procedure: A randomized, double blind, placebo controlled, three way crossover, single rising dose human clinical study in two sequential groups (Groups I and II) of nine young healthy male subjects (18-45 years of age and body mass index (BMI) of 20-26 kg/m^2) of a metered dose inhalation composition according to one embodiment the present invention was conducted. Each subject received two ascending single doses of inhaled delta-9-THC and one single dose of inhaled placebo according to a three-way crossover balanced incomplete block design. The administered composition is detailed in Table 1. Composition I provides 0.3 mg per actuation, while Composition II provides 1.2 mg per actuation.
Each sequential dose level or period was separated by a washout period of two weeks, during which an interim safety and pharmacokinetic analysis was performed. A third group (Group III) of nine elderly healthy male and female subjects (65-80 years old and BMI 18-30 kg/m^2) was added after completion of the sixth study period to participate in a single treatment period. […] Five dose levels were evaluated: 0.3 mg, 1.2 mg, and 2.4 mg in Group I, 3.6 mg, 7.2 mg, and 9.6 mg in Group II, and 3.6 mg in Group III. Subjects were confined to the study center from the day prior to dosing until the 48 hour blood sample. Subjects returned to the center for 72, 96 and 120 hour pharmacokinetic samples. Various pharmacokinetic and pharmacodynamic measurements and sampling were taken according to the Assessment Flow Charts in FIG. 1 and FIG. 2. Safety was measured by monitoring adverse events, physical examination, clinical laboratory and pulmonary function tests, vital signs, 12 lead ECG, and telemetry.
Safety, pharmacokinetic and pharmacodynamic variables were estimated. Plasma concentrations of delta-9-THC (THC), 11-hydroxy-tetrahydrocanabinol (11-OH-THC) and delta-9-tetrahydrocannbinol-carboxylic acid (THC-COOH) were determined for pharmacokinetic analysis.
Whole blood samples were collected according to the assessment flowchart in EDTA tubes through venepuncture or indwelling catheter. Samples were immediately placed on ice and subsequently centrifuged within 30 minutes at 1,500 g for 10 minutes. Plasma was transferred into a 5 ml screw cap polypropylene tube, stoppered and stored at below minus 20° C. until transfer to the analytical laboratory for analysis. […] The measurement ranges were 0.05-30 ng/ml for delta-9-THC, 0.04-30 ng/ml for 11-OH-THC, and 0.25-10 ng/ml for THC-COOH.
Number of subjects, mean, standard deviation, coefficient variable (%) and geometric mean were calculated for all pharmacokinetic parameters.
For Example 1: A mixed ANOVA model with group and dose fixed effect and subject within group by dose as random effect was performed on the logarithms of the dose normalized pharmacokinetic parameters AUC, AUC0-t and Cmax. The overall treatment effect was tested by conventional F-test with Satterthwaites correction. Dose proportionality was tested using Helmert Contrasts and Reverse Helmert Contrasts. The within and between subject coefficient of variances were calculated from the estimated covariance parameters. Per dose level geometric means with 90% confidence interval were calculated for the dose-normalized values from the least squared means analysis outcomes. The difference between young and elderly subjects was explored using a one-way ANOVA.

healthy subjects [3] = experiment: Example 2: pulmonary function tests; format: in vivo, human
Procedure: as §1, §2

healthy subjects [4] = tested on: healthy subjects; set-up: species or system human; details: in vivo
healthy subjects [5] = experiment: Example 2: conjunctiva congestion rating; format: in vivo, human
Description: Conjunctiva Congestion was rated by a trained observer on a scale of 0-3 based on the blood vessels present as follows:
0—None (The white of the eye was not affected)
3—Considerable (The compete white of the eye is red caused by a pattern of bigger vessels. This is associated with complaints.)
Changes from baseline in conjunctiva congestion and heart rate were compared for all time-points measured, and summarized using descriptive statistics. Subjective ratings were individually tabulated and sorted by treatment group, subject number, and time, and summarized using descriptive statistics. Separate tables were provided to summarize differences between males and females if applicable. Pharmacodynamic assessments were compared with delta-9 THC and 11-OH-THC blood concentrations and summarized using descriptive statistics.

healthy subjects [6] = tested on: healthy subjects; set-up: species or system human; details: in vivo; remark: listed apart in the source

Compound: CCCCCc1cc(O)c2c(c1)OC(C)(C)[C@@H]1CCC(C)=C[C@@H]21 [delta-9-THC, delta-9-tetrahydrocannabinol]
- heart rate, mean value (ECG) (healthy subjects [1]; Group I (1.2 mg)): 67 bpm
- time for heart rate to return to baseline after dosing (healthy subjects [1]; Group I): ≤ 40 min
- heart rate, mean increase above baseline (healthy subjects [1]; Group I): 4 bpm
- heart rate, mean increase above pre-dose value on Day 1 (healthy subjects [1]; Group I): 13 bpm
- heart rate, mean value (ECG) (healthy subjects [1]; Group II (3.6 mg)): 81 bpm
- time for heart rate to return to baseline after dosing (healthy subjects [1]; Group II): ≤ 240 min
- heart rate, mean increase above baseline (healthy subjects [1]; Group II): 14 bpm
- heart rate, mean increase above pre-dose value on Day 1 (healthy subjects [1]; Group II): 21 bpm
- time of return of QTc towards baseline after dosing (healthy subjects [1]; Group II, first dose): ≤ 1 h
- Individual QTc values (healthy subjects [1]; each assessment time point): less than 450 msec
- QTc individual values (healthy subjects [1]; each assessment time point): < 422 ms
- QTc mean values (healthy subjects [1]; each assessment time point): < 395 ms
- QTc-intervals using Fridericia's correction (healthy subjects [1]; in vivo): no apparent effect
- telemetric cardiac monitoring (healthy subjects [1]; in vivo): no clinically significant abnormalities
- ECG parameters (healthy subjects [1]; single and multiple inhalational dosing): no clinically significant abnormalities or trends
- Cmax and AUC versus dose ([2]; 7.2 and 9.6 mg doses): less than proportional increase
- Cmax and AUC versus dose ([2]; Groups I and II, doses from 0.3-3.6 mg): dose-related increase
- Cmax ([2]; male, human, plasma, inhaled, 2.4 mg): 23.6 ng/mL
- FEV1, lowest result during the study (healthy subjects [3]; one subject with below-normal pre-dose FEV1, Day 11, after six days of dosing with 1.2 mg): 63%
- FEV1 at the follow-up visit (healthy subjects [3]; same single subject, 1.2 mg): 58 % of predicted
- Choice Reaction Time against placebo (healthy subjects [4]): significant decrement; also recorded: significant benefit
- Delayed Word Recall Words Correctly Recalled, primary analysis (healthy subjects [4]): no significant effect of dose
- Delayed Word Recognition Sensitivity Index, primary analysis (healthy subjects [4]): no significant effect of dose
- Delayed Word Recognition Speed against placebo (healthy subjects [4]): benefits
- Digit Vigilance Speed, primary analysis (healthy subjects [4]): no significant effect of dose
- Digit Vigilance Targets Detected, baseline score (healthy subjects [4]): 95.6% and 96.7% and 97.4% and 98.5%
- Immediate Word Recall Words Correctly Recalled, primary analysis (healthy subjects [4]): no significant effect of dose
- Numeric Working Memory Sensitivity Index, primary analysis (healthy subjects [4]): no significant effect of dose
- Numeric Working Memory Speed, primary analysis (healthy subjects [4]): no significant effect of dose
- Picture Recognition Sensitivity Index, primary analysis (healthy subjects [4]): no significant effect of dose
- Picture Recognition Speed, primary analysis (healthy subjects [4]): no dose*time interaction
- Self-rated Alertness, comparisons against placebo (healthy subjects [4]): no decrements
- Self-rated Calmness, primary analysis (healthy subjects [4]): no significant effect of dose
- Self-rated Contentment, comparisons (healthy subjects [4]): no support for differences between the doses on either day
- Simple Reaction Time, comparisons (healthy subjects [4]): did not show any significant differences
- Spatial Working Memory Sensitivity Index against placebo (healthy subjects [4]): significant decrement
- Spatial Working Memory Sensitivity Index, primary analysis (healthy subjects [4]): significant main effect of dose
- Spatial Working Memory Speed, primary analysis (healthy subjects [4]): no significant effect of dose
- Tracking Average Distance from Target, primary analysis (healthy subjects [4]): no significant effect of dose
- cognitive function effects (summary) (healthy subjects [4]): Minimal cognitive function effects
- subjects with slight conjunctiva congestion (healthy subjects [5]; 1.2 mg, Day 12, 10 minutes after dosing): only one subject
- time to resolution of conjunctiva congestion post-dose (healthy subjects [5]; 1.2 mg, Day 12, one subject): ≤ 4 h
- conjunctiva congestion, rest of the study (healthy subjects [5]; Groups I and II (1.2 mg and 3.6 mg)): No other observation of conjunctiva congestion
- Choice reaction time (healthy subjects [6]): Significant decrements
- Digit Vigilance (healthy subjects [6]): slight decrement; also recorded: more marked decrements; also recorded: marked decrement
- Digit Vigilance, primary analysis (healthy subjects [6]): failed to show significant dose-time interaction
- Immediate word recall (healthy subjects [6]): No significant differences
- Numeric Working Memory Speed (healthy subjects [6]): significant decrements
- Numeric Working memory sensitivity index (healthy subjects [6]): No significant differences
- Spatial Working Memory Sensitivity Index (healthy subjects [6]): No significant differences
- Spatial Working Memory Speed (healthy subjects [6]): No significant differences
- delay of effects on VAS (healthy subjects [6]): up to two hours
- delay of effects on cognitive functioning (healthy subjects [6]): up to one hour
- delayed word recall, analysis (healthy subjects [6]): significant main effect of dose
- picture recognition sensitivity index (healthy subjects [6]): did not show any significant differences
- picture recognition speed (healthy subjects [6]): No significant differences
- word recognition speed (healthy subjects [6]): did not show any significant differences
- word sensitivity index (word recognition) (healthy subjects [6]): No significant differences
